Data as given in patent US11484539B2, “Compounds and their uses for alleviating menopause-associated symptoms” (Estetra SPRL, priority 2018, dated 2022).

System: post-menopausal women
Assay: Menopause Rating Scale (MRS), total MRS score
Assay type: in vivo
Design: key: 0 = asymptomatic, 44 = highest degree of complaints
Source text: As used herein, the terms “Quality of Life” (and the abbreviation “QoL”) refers to a parameter which can be assessed, for example, by using questionnaires, such as, by way of example and not limitation, the “Menopause Rating Scale” questionnaire (Heinemann et al., 2003, “International versions of the Menopause Rating Scale (MRS)” Health Qual Life Outcomes 1: 28; Heinemann et al., 2004, “The Menopause Rating Scale (MRS) scale: A methodological review”. Health Qual Life Outcomes 2: 45; Heinemann et al., 2004, “The Menopause Rating Scale (MRS) as outcome measure for hormone treatment? A validation study”. Health Qual Life Outcomes 2:67; as further detailed below in Example 1 Section C.) or the MENQOL questionnaire (The Menopause-specific Quality of Life (MENQOL) questionnaire, Hilditch et al.; Maturitas 1996; A menopause-specific quality of life questionnaire: development and psychometric properties; 24(3); p. 161-175).
The Menopause Rating Scale (MRS) is a health-related quality of life scale allowing the measure of severity of age-/menopause-related complaints by rating a profile of symptoms (Heinemann et al., 2003, “International versions of the Menopause Rating Scale (MRS)” Health Qual Life Outcomes 1: 28; Heinemann et al., 2004, “The Menopause Rating Scale (MRS) scale: A methodological review”. Health Qual Life Outcomes 2: 45; Heinemann et al., 2004, “The Menopause Rating Scale (MRS) as outcome measure for hormone treatment? A validation study”. Health Qual Life Outcomes 2:67).
The score increases point by point with increasing severity of subjectively perceived complaints in each one of 11 items (severity expressed in 0 to 4 points in each item). By checking these 5 possible boxes of “severity” for each of the items in the questionnaire, the respondent provides their personal perception. The total MRS score ranges between 0 (asymptomatic) to 44 (highest degree of complaints). The minimal/maximal scores vary between three dimensions depending on the number of complaints allocated to the respective dimension of symptoms (Heinemann et al., 2003, Health Qual Life Outcomes 1: 28): • 1. psychological symptoms: 0 to 16 scoring points (4 symptoms: depressed, irritable, anxious, exhausted); • 2. somato-vegetative symptoms: 0 to 16 points (4 symptoms: sweating/flush, cardiac complaints, sleeping disorders, joint & muscle complaints); • 3. urogenital symptoms: 0 to 12 points (3 symptoms: sexual problems, urinary complaints, vaginal dryness).

Compound: C[C@]12CC[C@@H]3c4ccc(O)cc4CC[C@H]3[C@@H]1[C@@H](O)[C@@H](O)[C@@H]2O [E4, 1,3,5 (10)-estratrien-3,15alpha,16alpha,17beta-tetrol]
- Total MRS Score, Mean (2.5 mg, Baseline): 16.5
- Total MRS Score, Mean (2.5 mg, Week 12): 9.5
- Total MRS Score, Mean (2.5 mg, week 4): 10.3
- Total MRS Score, Mean (5 mg, Baseline): 16.5
- Total MRS Score, Mean (5 mg, Week 12): 11.0
- Total MRS Score, Mean (5 mg, week 4): 10.5
- Total MRS Score, Mean (10 mg, Baseline): 17.6
- Total MRS Score, Mean (10 mg, Week 12): 9.7
- Total MRS Score, Mean (10 mg, week 4): 11.7
- Total MRS Score, Mean (15 mg, Baseline): 16.4
- Total MRS Score, Mean (15 mg, Week 12): 8.1
- Total MRS Score, Mean (15 mg, week 4): 8.7
